Experimental data from patent US10137116B2, “Benzimidazole sulfide derivatives for the treatment or prevention of tuberculosis” (priority 2015, dated 2018).
Values after ≈ are worked out from the molar mass of the structure shown. “Also recorded” adds a separate entry of the source. Read-outs that look alike come from different tables or passages of the source.

Legend:
[1] = system: intracellular Mtb-GFP (Mtb-Erdman) in MRC-5 fibroblasts; experiment: microbe, parasite or virus in culture; type: cell-based, Mycobacterium tuberculosis; settings: for activity in ex vivo assay: intracellular (ex vivo) assay; for IC50: Mycobacterium tuberculosis, ERDMAN, MRC5
Mtb H37Rv = experiment: microbe, parasite or virus in culture; type: cell-based, Mycobacterium tuberculosis; settings: for IC50: Mycobacterium tuberculosis, H37RV
[2] = system: Mtb-Erdman infected MRC-5 human lung fibroblasts; experiment: Fibroblast survival assay (HTS): protection of MRC-5 lung fibroblasts from Mtb-induced cytotoxicity; type: cell-based, Mycobacterium tuberculosis; settings: for activity in fibroblast survival assay: concentrations up to 50 μM, FIG. 1
[3] = system: intracellular Mtb-GFP in RAW264.7 macrophages; experiment: microbe, parasite or virus in culture; type: cell-based; settings: Mycobacterium tuberculosis, FIG. 2B, read-out: IC50 (growth of intracellular bacteria)
[4] = Intracellular drug quantification in MRC-5 cells (LC/MS); type: in vitro ADME, human; settings: MRC-5 cells exposed to 2 μM, 48 hours
Description: For intracellular drug quantification, 20000 MRC-5 cells were seeded in 96 well plates and exposed to 2 μM of LPZ. At given time-points, cells were extensively washed with PBS and lysed with 0.1% Triton X-100 in PBS and acetonitrile (1:1 ratio). After spinning at 15,000 g at 4° C., samples were shock frozen in liquid nitrogen and stored at −80° C. for MS.
Quantification in 7H9 broth was performed with 500 nM of LPZ, acetonitrile was added in a 1:1 ratio at given time-points followed by spinning and shock freezing. The UPLC separation was done on an Agilent 1290 Infinity LC system including the 1290 Infinity LC system Binary Pump with integrated degasser, the High Performance Autosampler and a thermostatted column compartment. The samples (2 μL) were injected into a Zorbax Extend-C18 (2.1×50 mm, 1.8 μm) analytical column operated at 40° C., using H2O—HCOOH 0.1% and CH3CN—HCOOH 0.1% as mobile phases A and B (2 to 100% B in 5 min) at a flow rate of 0.4 mL/min. The UPLC system was interfaced with a 6530 Accurate-Mass Q-TOF LC/MS system (Agilent Technologies). Electrospray-ionisation MS data were acquired in the positive ionization mode, in the mass range m/z 100-1000 (2 spectra/s). […]
The intracellular LPZ and possible metabolites were quantified at different time-points over a period of 48 hours using LC/MS.

[5] = Drug quantification in 7H9 broth (LC/MS); type: physicochemical; settings: 500 nM, 48 hours, FIG. 3C
Description: Quantification in 7H9 broth was performed with 500 nM of LPZ, acetonitrile was added in a 1:1 ratio at given time-points followed by spinning and shock freezing. The UPLC separation was done on an Agilent 1290 Infinity LC system including the 1290 Infinity LC system Binary Pump with integrated degasser, the High Performance Autosampler and a thermostatted column compartment. The samples (2 μL) were injected into a Zorbax Extend-C18 (2.1×50 mm, 1.8 μm) analytical column operated at 40° C., using H2O—HCOOH 0.1% and CH3CN—HCOOH 0.1% as mobile phases A and B (2 to 100% B in 5 min) at a flow rate of 0.4 mL/min. The UPLC system was interfaced with a 6530 Accurate-Mass Q-TOF LC/MS system (Agilent Technologies). Electrospray-ionisation MS data were acquired in the positive ionization mode, in the mass range m/z 100-1000 (2 spectra/s). Experimental parameters were set as follows: Fragmentor: 190V, Vcap: 3500 V, gas temperature: 300° C., sheath gas temperature: 350° C. External calibration was carried out with a solution of ESI_L (Agilent). Data were processed using MassHunter.
In mycobacterial growth medium, the results were markedly different. A rapid decay of LPZ was also observed confirming the instability of this drug. However, though LPZS was detectable in increasing amounts over time, it was not the major product of LPZ decay (FIG. 3C). […]

[6] = system: Mycobacterium tuberculosis H37Rv; experiment: REMA MIC; type: cell-based
[7] = system: Mycobacterium tuberculosis Erdman; experiment: REMA MIC; type: cell-based
[8] = system: Mycobacterium tuberculosis HN878 (Beijing strain); experiment: REMA MIC; type: cell-based
[9] = system: Mycobacterium abcessus 2005-0524; experiment: REMA MIC; type: cell-based; settings: 20050524
Mycobacterium avium = experiment: REMA MIC; type: cell-based
[10] = system: Mycobacterium bolletii 1999-0888; experiment: REMA MIC; type: cell-based; settings: Mycobacteroides abscessus, 19990888
Mycobacterium marinum M = experiment: REMA MIC; type: cell-based
[11] = system: Mycobacterium massiliense 2005-0484; experiment: REMA MIC; type: cell-based; settings: Mycobacteroides abscessus, 20050484
[12] = system: Mycobacterium smegmatis mc2155; experiment: microbe, parasite or virus in culture; type: cell-based; settings: Mycolicibacterium smegmatis
[13] = system: Mycobacterium vaccae ATCC 15483; experiment: REMA MIC; type: cell-based; settings: Mycolicibacterium vaccae, ATCC15483
Pseudomonas aeruginosa = experiment: REMA MIC; type: cell-based
Pseudomonas putida = experiment: REMA MIC; type: cell-based
Salmonella typhimurium = experiment: REMA MIC; type: cell-based; settings: Salmonella enterica
Staphylococcus aureus = experiment: REMA MIC; type: cell-based
Bacillus subtilis = experiment: REMA MIC; type: cell-based
Candida albicans = experiment: REMA MIC; type: cell-based
[14] = system: Corynebacterium diphtheriae; experiment: REMA MIC; type: cell-based
[15] = system: Corynebacterium glutamicum; experiment: REMA MIC; type: cell-based
Enterococcus faecalis = experiment: REMA MIC; type: cell-based
Escherichia coli = experiment: REMA MIC; type: cell-based
Listeria monocytogenes = experiment: REMA MIC; type: cell-based
Micrococcus Luteus = experiment: REMA MIC; type: cell-based
Mtb strains = experiment: MIC, summary statement for Mtb strains; type: cell-based; settings: Mycobacterium tuberculosis; Mtb strains such as H37Rv, Erdman and HN878 (Table 3)
non-Mtb strains = experiment: MIC, summary statement for non-Mtb strains; type: cell-based; settings: other non-Mtb strains such as Mycobacterium abcessus 2005-0524 or Escherichia coli
Mtb-H37Rv = type: in vivo, BALB/c mice; settings: 300 mg/kg twice a day for 9 days, vs vehicle TPGS, FIG. 4
THP-1 = type: cell-based
Description: (§1) Cytotoxicity of LPZS on THP1 macrophages, human liver hepatoma cells (HuH7-D12), human lung epithelial carcinoma cells (A549) and human embryonic liver cells (HepG2) (Table 5).

HepG2 = type: cell-based, human
Description: as §1

[16] = parameters: species or system BALB/c mice; settings: BALB/c, mouse, in vivo, 0.5 h
Description: For pharmacokinetic studies BALB/c mice (18-20 g) were given 100 mg/kg or 300 mg/kg LPZS in 20% TPGS (D-α tocopheryl polyethylene glycol 1000 succinate). At given time-points, blood from 3 mice was taken and, after spinning, serum was treated with acetonitrile (1:4 ratio). After a second spin, supernatants were frozen for LC/MS experiments.
BALB/c mice were given 100 mg/kg or 300 mg/kg of LPZS by oral gavage and serum levels were determined after 0.5, 1, 2, 4, 8 and 24 hours (FIG. 5).

[17] = doses as high as 300 mg/kg twice a day
human proton pump = human proton pump (Homo sapiens, UniProt P20648); settings: cited from earlier work
Chain of human proton pump (P20648 whole entry): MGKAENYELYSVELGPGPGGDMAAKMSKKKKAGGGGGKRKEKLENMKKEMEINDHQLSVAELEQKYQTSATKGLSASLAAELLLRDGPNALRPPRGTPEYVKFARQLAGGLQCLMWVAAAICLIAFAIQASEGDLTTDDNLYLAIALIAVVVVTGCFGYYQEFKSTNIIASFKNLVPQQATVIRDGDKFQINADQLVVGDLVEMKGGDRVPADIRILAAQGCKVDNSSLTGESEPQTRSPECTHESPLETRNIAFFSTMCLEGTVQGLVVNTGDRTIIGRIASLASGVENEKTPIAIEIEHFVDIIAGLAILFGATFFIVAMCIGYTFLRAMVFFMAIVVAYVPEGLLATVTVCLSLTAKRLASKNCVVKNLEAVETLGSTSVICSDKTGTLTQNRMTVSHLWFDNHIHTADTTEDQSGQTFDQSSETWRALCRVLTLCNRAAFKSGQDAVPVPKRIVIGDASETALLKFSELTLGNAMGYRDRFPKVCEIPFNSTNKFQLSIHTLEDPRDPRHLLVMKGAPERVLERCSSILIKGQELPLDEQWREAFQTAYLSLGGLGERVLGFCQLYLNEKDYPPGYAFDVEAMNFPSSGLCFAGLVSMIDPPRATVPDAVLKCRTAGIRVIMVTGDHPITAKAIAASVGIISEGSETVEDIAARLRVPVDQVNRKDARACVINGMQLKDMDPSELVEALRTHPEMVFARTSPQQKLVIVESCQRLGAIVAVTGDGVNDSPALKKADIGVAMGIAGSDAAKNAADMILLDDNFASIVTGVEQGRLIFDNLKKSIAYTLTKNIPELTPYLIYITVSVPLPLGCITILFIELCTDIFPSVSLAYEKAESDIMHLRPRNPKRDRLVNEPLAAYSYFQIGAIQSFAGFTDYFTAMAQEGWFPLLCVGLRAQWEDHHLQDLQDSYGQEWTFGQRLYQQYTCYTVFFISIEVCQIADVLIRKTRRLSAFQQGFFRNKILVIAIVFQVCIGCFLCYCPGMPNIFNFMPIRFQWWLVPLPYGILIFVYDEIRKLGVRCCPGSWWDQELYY
Chain of human proton pump (P51164 whole entry partner): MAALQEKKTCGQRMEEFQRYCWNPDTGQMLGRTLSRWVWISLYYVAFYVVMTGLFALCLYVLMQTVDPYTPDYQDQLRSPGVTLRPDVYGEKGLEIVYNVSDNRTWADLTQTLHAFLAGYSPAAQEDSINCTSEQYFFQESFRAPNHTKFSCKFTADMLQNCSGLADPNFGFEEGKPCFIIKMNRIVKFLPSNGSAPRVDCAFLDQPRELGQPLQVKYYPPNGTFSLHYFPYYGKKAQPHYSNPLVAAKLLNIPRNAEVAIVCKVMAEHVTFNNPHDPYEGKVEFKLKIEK

[18] = table values in μM or words, read-out: IC50 against Mtb in broth
[19] = table values in μM or words, read-out: IC50 intracellular

Compound: COc1ccc2[nH]c(SCc3ncc(C)cc3C)nc2c1
- IC50 intracellular ([1]; table values in μM or words): inactive
- IC50 against Mtb in broth (Mtb H37Rv; table values in μM or words): inactive

Compound: Cc1c(SCCN2CCc3ccccc3C2)ccnc1CSc1nc2ccccc2[nH]1
- IC50 (Mtb H37Rv; [18]): 2.7 µM

Compound: FC(F)(F)Oc1ccc(C2CCN(c3ccc(CSc4nc5ccccc5[nH]4)cc3)CC2)cc1
- IC50 (Mtb H37Rv; [18]): ~48 µM

Compound: COc1ccnc(C[S+]([O-])c2nc3cc(OC(F)F)ccc3[nH]2)c1OC.[Na+] (stereo not shown)
- IC50 intracellular ([1]; table values in μM or words): Inactive
- IC50 against Mtb in broth (Mtb H37Rv; table values in μM or words): Inactive

Compound: Cc1c(OCC(F)(F)F)ccnc1CS(=O)(=O)c1nc2ccccc2[nH]1
- IC50 intracellular ([1]; table values in μM or words): Inactive
- IC50 against Mtb in broth (Mtb H37Rv; table values in μM or words): Inactive

Compound: 5-hydroxy Lansoprazole potassium
- activity in ex vivo assay [1]: inactive
- activity in in vitro assay (Mtb H37Rv): inactive

Compound: Cc1c(OCC(F)(F)F)ccnc1C[S+]([O-])c1nc2ccccc2[nH]1 (racemic) [LPZ, (RS)-2-([3-méthyl-4-(2,2,2-trifluoroéthoxy)pyridin-2-yl]méthylsulfinyl)-1H-benzimidazole]
- fibroblast survival / protection against Mtb induced killing [2]: supported fibroblast survival at rates comparable to well established anti-mycobacterial drugs such as Rifampicin and Moxifloxacine; also recorded: inhibits the growth of Mtb as well as Rifampicin or Moxifloxacine
- IC50 ([1]; MRC-5 cells, FIG. 2A, read-out: IC50 (Mtb-GFP signal)): 1.47 µM
- IC50 [1, 19]: 1.47 µM
- IC50 [3]: 2.2 µM
- IC50 (Mtb H37Rv; read-out: IC50 (Mtb in broth)): 32.8 µM
- IC50 (Mtb H37Rv; read-out: IC50 (inhibit Mtb)): < 40 µM
- IC50 (Mtb H37Rv; [18]): 32.8 µM
- intracellular decay [4]: rapid intracellular decay
- decay in mycobacterial growth medium [5]: rapid decay

Compound: Cc1c(Cl)ccnc1CSc1nc2ccccc2[nH]1 [4-Desmethoxypropoxyl-4-chloro rabebrazole sulfide]
- IC50 [1, 19]: 6 µM
- IC50 (Mtb H37Rv; read-out: IC50 (Mtb in broth)): 6 to 12 µM
- IC50 (Mtb H37Rv; [18]): 6 to 12 µM

Compound: Cc1c(OCC(F)(F)F)ccnc1CSc1nc2ccccc2[nH]1 [LPZS, Lanzoprazole sulfide]
- IC50 ([1]; read-out: IC50 (intracellular activity)): 0.59 µM
- IC50 ([1]; table values in nM, read-out: IC50 intracellular): 0.59 µM
- IC50 (Mtb H37Rv; read-out: IC50 (Mtb in broth)): 0.46 µM
- IC50 (Mtb H37Rv; table values in nM, read-out: IC50 against Mtb in broth): 0.46 µM
- MIC [6]: 1.13 µM (≈ 0.399 µg/mL)
- MIC [7]: 1.21 µM (≈ 0.428 µg/mL)
- MIC [8]: 1.74 µM (≈ 0.615 µg/mL)
- MIC [9]: > 100 µM
- MIC (Mycobacterium avium): > 100 µM
- MIC [10]: > 100 µM
- MIC (Mycobacterium marinum M): 100 µM (≈ 35.3 µg/mL)
- MIC [11]: > 100 µM
- MIC [12]: > 100 µM
- MIC [13]: > 100 µM
- MIC (Pseudomonas aeruginosa): > 100 µM
- MIC (Pseudomonas putida): > 100 µM
- MIC (Salmonella typhimurium): > 100 µM
- MIC (Staphylococcus aureus): > 100 µM
- MIC (Bacillus subtilis): > 100 µM
- MIC (Candida albicans): > 100 µM
- MIC [14]: > 100 µM
- MIC [15]: > 100 µM
- MIC (Enterococcus faecalis): > 100 µM
- MIC (Escherichia coli): > 100 µM
- MIC (Listeria monocytogenes): > 100 µM
- MIC (Micrococcus Luteus): > 100 µM
- MIC (Mtb strains): < 2 µM
- MIC (non-Mtb strains): > 100 µM
- bacterial burden (cfu) in the lungs (Mtb-H37Rv): significantly reduced
- TD50 (THP-1): 75 µM
- TD99 (THP-1): >100 µM
- TD50 (HepG2): 25 µM
- TD99 (HepG2): 100 µM
- concentration in blood relative to Cmax [16]: 100 % of Cmax
- signs of toxicity in mice [17]: no signs of toxicity
- activity towards the human proton pump (human proton pump): no activity

Compound: COc1ccc2[nH]c([S+]([O-])Cc3ncc(C)c(OC)c3C)nc2c1 (stereo not shown) [Omeprazole]
- activity in fibroblast survival assay [2]: inactive
- activity in ex vivo assay [1]: inactive
- activity in in vitro assay (Mtb H37Rv): inactive

Compound: COc1ccnc(C[S+]([O-])c2nc3ccc(OC(F)F)cc3[nH]2)c1OC (stereo not shown) [Pantoprazole]
- activity in fibroblast survival assay [2]: inactive
- activity in ex vivo assay [1]: inactive
- activity in in vitro assay (Mtb H37Rv): inactive

Compound: Cc1c(OCC(F)(F)F)ccnc1C[S+]([O-])c1nc2ccccc2[nH]1 (stereo not shown) [R-Lansoprazole]
- IC50 [1, 19]: 1.47 µM
- IC50 (Mtb H37Rv; read-out: IC50 (inhibit Mtb)): < 40 µM
- IC50 (Mtb H37Rv; [18]): 32.8 µM

Compound: COCCCOc1ccnc(C[S+]([O-])c2nc3ccccc3[nH]2)c1C (stereo not shown) [Rabeprazole sodium]
- IC50 [1, 19]: 6 µM
- IC50 (Mtb H37Rv; read-out: IC50 (Mtb in broth)): 25 µM
- IC50 (Mtb H37Rv; read-out: IC50 (inhibit Mtb)): < 40 µM
- IC50 (Mtb H37Rv; [18]): 25 µM

Compound: COCCCOc1ccnc(CSc2nc3ccccc3[nH]2)c1C [Rabeprazole sulfide]
- IC50 [1, 19]: 3 µM
- IC50 (Mtb H37Rv; read-out: IC50 (Mtb in broth)): 5 µM
- IC50 (Mtb H37Rv; [18]): 5 µM

Compound: COc1ccc2[nH]c([S+]([O-])Cc3ncc(C)c(OC)c3C)nc2c1 (stereo not shown) [drawing 26]
- IC50 intracellular ([1]; table values in μM or words): Inactive
- IC50 against Mtb in broth (Mtb H37Rv; table values in μM or words): Inactive
